{
  "source": "patent US7888527B2",
  "about": "(University of Virginia Patent Foundation, priority 2004, dated 2011)",
  "biological_target": "human S1P1 receptor (Homo sapiens, UniProt P21453)",
  "sequence (P21453 whole entry)": "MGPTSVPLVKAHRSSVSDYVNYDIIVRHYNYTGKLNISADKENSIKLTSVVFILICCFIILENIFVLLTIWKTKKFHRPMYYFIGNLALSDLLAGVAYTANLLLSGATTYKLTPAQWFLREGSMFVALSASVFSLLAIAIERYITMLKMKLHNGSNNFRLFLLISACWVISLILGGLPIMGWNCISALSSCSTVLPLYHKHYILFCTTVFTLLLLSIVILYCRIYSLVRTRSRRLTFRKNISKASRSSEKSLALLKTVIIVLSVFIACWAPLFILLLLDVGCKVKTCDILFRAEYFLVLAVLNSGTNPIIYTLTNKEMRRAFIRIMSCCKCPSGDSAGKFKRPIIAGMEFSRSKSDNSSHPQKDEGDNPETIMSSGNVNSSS",
  "experiment": "Cell migration assay, T24 cells transfected stably with human S1P1 receptor",
  "format": "cell-based",
  "set-up": "expressed in transfected cells",
  "procedure": "[…] monolayers are co-transfected with the human S1P1, S1P2, S1P3 receptor encoding DNAs and the pIRESpuro2 plasmid DNA (Clontech, San Jose, Calif.,) using either Lipofectamine 2000 (Invitrogen, Carlsbad, Calif.) or FuGENE 6 (Roche Applied Science, Indianapolis, Ind.). Clonal populations expressing the puromycin acetyltransferase gene are selected by addition of puromycin (Sigma-Aldrich, St. Louis, Mo.) to the culture media. T24 cells are grown in monolayers at 37° C. in a 5% CO2/95% air atmosphere in growth media consisting of: 95% DMEM/F-12 medium and 10% charcoal/dextran stripped FBS.\nCell migration assays are performed using modified Boyden chambers (tissue culture-treated, 24-mm diameter, 10-μm thickness, 8-μm pores, Transwell®; Costar Corp., Cambridge, Mass.) containing polycarbonate membranes that are coated on the underside with 0.1% gelatin. The underside of the polycarbonate membranes is rinsed once with migration media (DMEM/F12 without Phenol Red and 0.1% fatty acid free BSA) and then immersed in the lower chamber containing two milliliters of migration media. T24 cells transfected stably with human S1P1 receptor DNA were grown in DMEM/F12 media containing charcoal/dextran stripped FBS and 10 μg/ml puromycin to 100% confluence in 150×2.5 mm tissue culture plates and serum starved at least 12 hours. Serum-starved cells were removed from culture dishes with 10× Trypsin-EDTA (Hanks' balanced salt solution containing 5 mM EDTA and 25 mM HEPES, pH 7.2, and 0.1% trypsin; Invitrogen, San Diego, Calif.), suspended in migration buffer and collected by centrifugation at 130×g for 5 minutes. The supernatant fluid was removed by aspiration and cell pellet resuspended in migration media (10^6 cells/ml). […] The non-migrating cells in the upper chamber were removed by aspiration and the migratory cells attached to the bottom surface of the membrane were isolated by incubation in 10× Trypsin-EDTA for 1 min at room temperature and gently tapping the plate to dislodge cells from the membrane. The mass of migratory cells per membrane was evaluated by combining 100 μl of cell suspension with an equal volume of CyQuant dye solution (3.0 ml of 2× lysis buffer and 15 μl CyQuant dye), and the resulting fluorescence quantified using the FlexStation™ fluorimeter (Molecular Devices, Menlo Park, Calif.). Each determination represents the average of two individual migration chambers. […] The monolayer was washed three times with phosphate buffered saline and processed immediately for the cell migration assay, as described above.",
  "data": [
    {"smiles": "CCCCCCCCc1cccc(NC(=O)[C@H](N)COP(=O)(O)O)c1", "note": "[VPC23019]", "values": [
      {"measurement": "Blockade of VPC22277 (10 nM)-induced migration", "setting": "50 nM antagonist", "value": "Blockade"},
      {"measurement": "Reversibility of antagonism after washout, cell migration", "setting": "10 μM VPC23019 pre-incubation 30 min, washed", "value": "recovered fully"},
      {"measurement": "Blockade of VPC22277 (10 nM)-induced migration", "setting": "10, 100 and 1000 nM antagonist", "value": "blockade"},
      {"measurement": "Migration of T24-S1P1 cells evoked by compound alone", "setting": "VPC22277 10 nM, VPC23019 1 nM-1000 nM", "value": "no migration was evoked and not"}
    ]}
  ]
}
